ChEMBL document CHEMBL3588781, “HPLC-NMR and HPLC-MS Profiling and Bioassay-Guided Identification of Secondary Metabolites from the Australian Plant Haemodorum spicatum” (2015)
Calls of active or inactive are those of the source. No cut-off for these calls is given here.

How the values were obtained:
[1] = system: Pseudomonas aeruginosa; assay: Antimicrobial activity against Pseudomonas aeruginosa ATCC 27853 assessed as microbial growth inhibition at 1 mg/ml incubated overnight at 37 degC; format: functional; details: for zone of inhibition at 1000 µg/mL: read-out: IZ
[2] = system: Candida albicans; assay: Antimicrobial activity against Candida albicans ATCC 10231 assessed as microbial growth inhibition at 1 mg/ml incubated overnight at 37 degC; format: functional, organism-based
[3] = system: Escherichia coli; assay: Antimicrobial activity against Escherichia coli ATCC 25922 assessed as microbial growth inhibition at 1 mg/ml incubated overnight at 37 degC; format: functional; details: for zone of inhibition at 1000 µg/mL: read-out: IZ
[4] = system: Staphylococcus aureus; assay: Antimicrobial activity against methicillin-resistant Staphylococcus aureus 344/2-32 assessed as microbial growth inhibition at 1 mg/ml incubated overnight at 37 degC; format: functional; details: for zone of inhibition at 1000 µg/mL: read-out: IZ
[5] = system: Staphylococcus aureus; assay: Antimicrobial activity against Staphylococcus aureus ATCC 25923 assessed as microbial growth inhibition at 1 mg/ml incubated overnight at 37 degC; format: functional; details: for zone of inhibition at 1000 µg/mL: read-out: IZ
[6] = system: Streptococcus pyogenes; assay: Antimicrobial activity against Streptococcus pyogenes 345/1 assessed as microbial growth inhibition at 1 mg/ml incubated overnight at 37 degC; format: functional; details: for zone of inhibition at 1000 µg/mL: read-out: IZ

SMILES | zone of inhibition at 1000 µg/mL [1] [mm] | inhibition zone (IZ) [2] | inhibition zone (IZ) [3] | zone of inhibition at 1000 µg/mL [4] [mm] | zone of inhibition at 1000 µg/mL [5] [mm] | zone of inhibition at 1000 µg/mL [6] [mm] | inhibition zone (IZ) [4] | inhibition zone (IZ) [5] | zone of inhibition at 1000 µg/mL [3] [mm] | inhibition zone (IZ) [1] | inhibition zone (IZ) [6]
COc1cc2ccc(=O)c3ccc4c5ccccc5oc1c4c23 | 3 | inactive | inactive | 1 | 1 | 3 |  |  |  |  | 
O=c1ccc2cc(O)c3oc4ccccc4c4ccc1c2c34 | 3 | inactive | inactive |  |  | 1 | inactive | inactive |  |  | 
COC1=Cc2cc(O)c(OC)c3ccc(-c4ccccc4)c(c23)C1=O | 1 | inactive |  |  | 1 | 1 | inactive |  | 1 |  | 
COc1cc(OC)c2ccc(-c3ccccc3)c3c2c1C=C(O)C3=O | 5 | inactive |  | 1 | 1 | 1 |  |  | 1 |  | 
COC1OC(=O)c2ccc(-c3ccccc3)c3c(O)c(O)cc1c23 (stereo unspecified) | 1 | inactive |  |  |  | 1 | inactive | inactive | 1 |  | 
COC1=Cc2ccc(OC)c3ccc(-c4ccccc4)c(c23)C1=O | 3 | inactive |  |  |  | 1 | inactive | inactive | 1 |  | 
COc1cc2cc(OC)c3oc4ccccc4c4ccc(c1=O)c2c34 | 4 | inactive | inactive |  |  | 2 | inactive | inactive |  |  | 
COC1=Cc2cc(OC)c(OC)c3ccc(-c4ccccc4)c(c23)C1=O | 1 | inactive |  | 1 |  | 1 |  | inactive | 1 |  | 
COC1=Cc2cc(=O)oc3ccc(-c4ccccc4)c(c23)C1=O |  | inactive |  |  |  |  | inactive | inactive | 1 | inactive | inactive
COC(=O)Nc1nc2ccccc2[nH]1 |  | inactive |  |  |  |  |  |  |  |  | 
COc1cc2cc(O)c3oc4ccccc4c4ccc(c1=O)c2c34 | 5 | inactive |  |  |  | 2 | inactive | inactive | 1 |  | 
CC1(C)S[C@@H]2[C@H](NC(=O)[C@H](N)c3ccccc3)C(=O)N2[C@H]1C(=O)O [AMPICILLIN] | 2 |  | inactive | 3 | 15 | 20 |  |  |  |  | 
